The values that follow are results of earlier work, collected in patent US20230310615A1, “OPHTHALMIC COMPOSITIONS” (Alcon Inc., priority 2022, published 2023).

For this data set the following is noted: dissociation constant of the dibasic compound.

In the case of `OCC(CO)(CO)NCCCNC(CO)(CO)CO` [bis-TRIS-propane, 1,3-bis(tris[hydroxymethyl]methylamino)propane], the pKa1 is 6.8 and the pKa2 was 9.5.
